The values below come from patent US7482348B2, “Piperazinyl substituted cyclohexane-1,4-diamines” (Janssen Pharmaceutica N.V., priority 2005, dated 2009).

The structures appear in SMILES notation.

One test deals with T1, α1d-AR (Homo sapiens, UniProt P25100).
T1 construct: expressed in transfected cells; host or cells: COS-7 (African green monkey kidney) membranes
T1 sequence (P25100 1-572): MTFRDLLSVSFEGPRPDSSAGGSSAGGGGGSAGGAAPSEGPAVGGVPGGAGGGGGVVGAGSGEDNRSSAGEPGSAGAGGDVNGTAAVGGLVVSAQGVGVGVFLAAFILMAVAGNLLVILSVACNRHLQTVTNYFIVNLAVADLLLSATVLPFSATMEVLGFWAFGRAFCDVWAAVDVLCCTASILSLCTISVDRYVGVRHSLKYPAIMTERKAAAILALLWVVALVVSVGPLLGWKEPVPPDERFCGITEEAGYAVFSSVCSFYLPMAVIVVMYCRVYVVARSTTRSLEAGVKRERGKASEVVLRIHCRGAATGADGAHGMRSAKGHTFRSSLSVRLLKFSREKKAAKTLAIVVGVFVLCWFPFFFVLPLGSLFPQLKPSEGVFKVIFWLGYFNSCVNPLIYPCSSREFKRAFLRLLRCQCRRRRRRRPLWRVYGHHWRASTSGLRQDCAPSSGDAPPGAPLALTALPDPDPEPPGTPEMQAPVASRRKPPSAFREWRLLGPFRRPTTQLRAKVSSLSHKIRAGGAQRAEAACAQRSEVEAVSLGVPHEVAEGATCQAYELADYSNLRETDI
The experiment in a line: α1-Adrenergic receptor radio-ligand (125I-HEAT) binding assay, α1d subtype. Particulars: membranes of transfected COS-7 cells, 125I-HEAT 50 pM. On the procedure:
(§1) α1-Adrenergic Receptor Binding Assay
(§2) Preparation of COS Cell Membranes
(§3) Membranes were prepared from COS-7 cells (African Green monkey kidney SV40-transformed cells) that had been transfected with one of the three α1-AR subtypes (Genbank accession number for the α1a subtype: AF013261; Genbank accession number for the α1b subtype: NM000679; Genbank accession number for the α1d subtype: NM000678) using the following method: COS cells from ten 100 mm tissue culture plates were scraped into a 5 mL volume of TE (a mixture of 50 mM Tris-HCl, 5 mM EDTA, pH 7.4). The cell suspension was disrupted with a Brinkman Polytron (at a setting of 8) for 10 sec. The disrupted cells were centrifuged at 1000×g for 10 min at 4° C. Supernatants were centrifuged at 34,500×g for 20 min at 4° C. The membrane pellets were suspended in a 2 mL volume of TNE (a mixture of 50 mM Tris-HCl, 5 mM EDTA and 150 mM NaCl at pH 7.4). An aliquot of the membrane suspension was stored at −70° C. until use. The protein concentration was determined using the BioRad “DC” protein assay kit following membrane solubilization with Triton X-100.
(§4) Radio-ligand Binding Assay
(§5) Triplicate determinations of radio-ligand binding in the presence of increasing concentrations of testing compound were made. The reagents were added to 96-well polypropylene plate wells. Each assay well contained 140 μL TNE, 25 μL ^125I-2-(β-4-hydroxyphenyl)ethylaminomethyltetralone (^125I-HEAT) (specific activity 2200 Ci/mmol, Dupont-New England Nuclear, 50 pM final), 10 μL testing compound dissolved in dimethyl sulfoxide (DMSO) (1 pM to 10 μM in half-log increments, final), and 25 μL appropriate α1-AR membrane subtype suspension in TNE (0.5 ng/μL for the α1a and α1b subtypes and 13 ng/μL for the α1d subtype). The plate was incubated at rt for 1 hr. The contents of the wells were filtered through a glass filter (type C) (GF/C) membrane Unifilter plate (Packard Instruments) using the Packard Filtermate cell harvester. The filter plates were dried in a vacuum oven for 30 min at 40° C. 25 μL Microscint 20 liquid scintillation fluid (Packard Instuments) was added to each well. The radioactive content was analyzed in the TopCount microplate scintillation counter (Packard Instruments).
(§6) The Ki values (in nM) shown in Table 1 were determined using GraphPad Prism software.

For the next test, the target named is T2, α1a-AR (Homo sapiens, UniProt P35348).
T2 construct: expressed in transfected cells; host or cells: COS-7 (African green monkey kidney) membranes
T2 sequence (P35348 1-455 isoform P35348-4): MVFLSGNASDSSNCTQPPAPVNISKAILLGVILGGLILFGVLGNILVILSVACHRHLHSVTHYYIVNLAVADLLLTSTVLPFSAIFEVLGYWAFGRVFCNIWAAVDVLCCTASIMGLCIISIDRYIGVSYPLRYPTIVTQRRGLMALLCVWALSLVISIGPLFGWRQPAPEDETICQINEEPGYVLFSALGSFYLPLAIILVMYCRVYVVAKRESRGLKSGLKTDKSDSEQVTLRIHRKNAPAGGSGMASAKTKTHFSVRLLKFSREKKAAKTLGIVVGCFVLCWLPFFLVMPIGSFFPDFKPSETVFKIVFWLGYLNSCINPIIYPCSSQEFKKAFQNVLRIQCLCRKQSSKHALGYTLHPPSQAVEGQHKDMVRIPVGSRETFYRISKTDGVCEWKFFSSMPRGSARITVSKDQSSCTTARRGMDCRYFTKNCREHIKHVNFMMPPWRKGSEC
As to the kind of experiment: α1-Adrenergic receptor radio-ligand (125I-HEAT) binding assay, α1a subtype. The settings on record: membranes of transfected COS-7 cells, 125I-HEAT 50 pM. On the procedure:
as §1, §2, §3, §4, §5, §6

The target of another test is T3, α1b-AR (Homo sapiens, UniProt P35368).
T3 construct: expressed in transfected cells; host or cells: COS-7 (African green monkey kidney) membranes
T3 sequence (P35368 1-520): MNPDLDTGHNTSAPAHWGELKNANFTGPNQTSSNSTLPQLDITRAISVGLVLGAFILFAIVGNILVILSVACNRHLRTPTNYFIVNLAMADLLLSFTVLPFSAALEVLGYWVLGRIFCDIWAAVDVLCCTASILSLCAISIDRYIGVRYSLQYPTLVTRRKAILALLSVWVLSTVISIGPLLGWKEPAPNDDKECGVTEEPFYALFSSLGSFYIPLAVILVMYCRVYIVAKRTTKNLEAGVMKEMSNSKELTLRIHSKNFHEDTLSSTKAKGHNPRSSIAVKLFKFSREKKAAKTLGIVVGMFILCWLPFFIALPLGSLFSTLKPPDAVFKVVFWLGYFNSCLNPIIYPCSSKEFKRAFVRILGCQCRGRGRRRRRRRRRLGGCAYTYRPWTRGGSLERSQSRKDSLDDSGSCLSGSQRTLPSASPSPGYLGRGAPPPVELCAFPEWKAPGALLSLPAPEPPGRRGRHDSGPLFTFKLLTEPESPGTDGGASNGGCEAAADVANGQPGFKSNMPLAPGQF
The experiment in a line: α1-Adrenergic receptor radio-ligand (125I-HEAT) binding assay, α1b subtype. The settings on record: membranes of transfected COS-7 cells, 125I-HEAT 50 pM. As for the experimental part: as §1, §2, §3, §4, §5, §6

Test [1] relates to α1a and α1d subtypes over the α1b subtype. Particulars: cited from earlier work.

Consider `O=S(=O)(N[C@H]1CC[C@@H](N2CCN(c3ncccc3OCC3CC3)CC2)CC1)c1cc(Cl)ccc1F` [Cpd 11, 5-chloro-N-cis-{4-[4-(3-cyclopropylmethoxy-pyridin-2-yl)-piperazin-1-yl]-cyclohexyl}-2-fluoro-benzenesulfonamide], for which the Ki (commonly the equilibrium dissociation constant of an inhibitor or competing ligand from its target) at α1d-AR was 0.0436 µM; at α1a-AR it was 0.0357 µM; at α1b-AR, 0.952 µM.
For `COc1ccc(Cl)cc1S(=O)(=O)N[C@H]1CC[C@@H](N2CCN(c3ncccc3OCC3CC3)CC2)CC1` [Cpd 9, 5-chloro-N-cis-{4-[4-(3-cyclopropylmethoxy-pyridin-2-yl)-piperazin-1-yl]-cyclohexyl}-2-methoxy-benzenesulfonamide], in that order: 0.0483 µM, 0.0187 µM and 0.601 µM.
As to `CCOc1ccccc1OCCN[C@H](C)Cc1ccc(OC)c(S(N)(=O)=O)c1` [Tamsulosin], in test [1], the “selectivity for the α1a and α1d subtypes over the α1b subtype” value is on record as “about 15 fold”.
As to `COc1ccc(Cl)cc1S(=O)(=O)N[C@H]1CC[C@@H](N2CCN(c3ncccc3OC(C)C)CC2)CC1` [Cpd 5, 5-chloro-N-cis-{4-[4-(3-isopropoxy-pyridin-2-yl)-piperazin-1-yl]-cyclohexyl}-2-methoxy-benzenesulfonamide], the results for the Ki on α1d-AR, on α1a-AR and at α1b-AR were 0.0124 µM, 0.0107 µM and 0.399 µM, respectively.
For `COc1ccc(S(=O)(=O)N[C@H]2CC[C@@H](N3CCN(c4ncccc4OCC4CC4)CC3)CC2)cc1OC` [Cpd 1, N-cis-{4-[4-(3-cyclopropylmethoxy-pyridin-2-yl)-piperazin-1-yl]-cyclohexyl}-3,4-dimethoxy-benzenesulfonamide] the same measures were 0.064 µM, 0.189 µM and 0.364 µM.
Take `CC(C)Oc1cccnc1N1CCN([C@H]2CC[C@@H](NS(=O)(=O)c3cc(Cl)ccc3F)CC2)CC1` [Cpd 7, 5-chloro-2-fluoro-N-cis-{4-[4-(3-isopropoxy-pyridin-2-yl)-piperazin-1-yl]-cyclohexyl}-benzenesulfonamide]: the results for the Ki on α1d-AR, at α1a-AR and at α1b-AR were 0.0153 µM, 0.0447 µM and 1.86 µM, respectively.
For `COc1ccc(S(=O)(=O)N[C@H]2CC[C@@H](N3CCN(c4ncccc4OC(C)C)CC3)CC2)cc1OC` [Cpd 3, N-cis-{4-[4-(3-isopropoxy-pyridin-2-yl)-piperazin-1-yl]-cyclohexyl}-3,4-dimethoxy-benzenesulfonamide] the same measures were 0.019 µM, 0.061 µM and 0.112 µM.
